Measured values reported in patent publication US9573969B2, “Compounds and compositions as kinase inhibitors” (NOVARTIS AG, priority 2014, dated 2017).
Values after ≈ are worked out from the molar mass of the structure shown. Read-outs that look alike come from different tables or passages of the source.

Tests used:
[1] = high throughput solubility assay; type: physicochemical; conditions: for solubility: buffer solution, thermodynamic from solid
Procedure: Solubility of the compounds of the invention was assessed in a high throughput solubility assay: compounds were received as 10 mM DMSO solutions. The DMSO stock solution was then transferred into a microtiter plate. The DMSO solvent was dried with a solvent evaporator (GeneVac). After the addition of buffer solution (pH 6.8, pH 4.0 or FaSSIF), the plate was sealed and shaken for 16-24 hours at room temperature. The plate was centrifuged for phase separation and the supernatant quantified by a RapidFire 365 High-throughput MS System (Agilant) coupled with a mass spectrometer (Sciex), using a calibration curve constructed with the same DMSO stock solution. Solubility results (μM) are obtained in triplicate.

C-Raf = molecular target: T1, C-Raf (Homo sapiens, UniProt P04049, Y340E/Y341E); assay: In Vitro Raf Activity Determination (Alpha Screen, phosphorylation of kinase dead MEK1); type: biochemical
T1 construct: His tag (implied by nickel chromatography) and/or StrepII tag; made in house; host or cells: Sf9 insect cells (baculovirus) for CRAF and h14-3-3 zeta; E. coli for MEK1
Source text: CRAF cDNA was subcloned as full length protein, with Y340E and Y341E activating mutations, into a baculovirus expression vector for Sf9 insect cell expression. h14-3-3 zeta cDNA was subcloned into a baculovirus expression vector for SF9 insect cell expression. Sf9 cells co-expressing both proteins were lysed and subjected to immobilized nickel chromatography and eluted with Imidazole. A second column (StrepII binding column) was used and eluted with desthiobiotin. Protein Tags were removed using Prescission enzyme and the protein was further purified using a flowthrough step to remove tags.
C-Raf TR refers to a truncated C-Raf protein, a Δ1-324 deletion mutant. C-Raf FL refers to the full-length C-Raf protein.
Full length MEK1 with an inactivating K97R ATP binding site mutation is utilized as a RAF substrate. The MEK1 cDNA was subcloned with an N-terminal (his)6 tag into a vector for E. Coli expression. The MEK1 substrate was purified from E. Coli lysate by nickel affinity chromatography followed by anion exchange. The final MEK1 preparation was biotinylated (Pierce EZ-Link Sulfo-NHS-LC-Biotin) and concentrated.
Assay Materials: Assay buffer is 50 mM Tris, pH 7.5, 15 mM MgCl2, 0.01% Bovine Serum Albumin (BSA) and 1 mM dithiothreitol (DTT); Stop buffer is 60 mM ethylenediaminetetraacetic acid (EDTA) and 0.01% Tween® 20; b-Raf (V600E), active; biotinylated Mek, kinase dead; Alpha Screen detection kit (available from PerkinElmer™ #6760617R); Anti phospho-MEK1/2 (available from Cell Signaling Technology, Inc. #9121); 384 well low volume assay plates (White Greiner® plates).
Assay conditions: b-Raf (V600E) approximately 4 pM; c-Raf approximately 4 nM; biotinylated Mek, kinase dead approximately 10 nM; ATP 10 μM for BRAF (V600E) and 1 μM for CRAF; Pre-incubation time with compounds 60 minutes at room temperature; Reaction time 1 or 3 hours at room temperature.
Assay protocol: Raf and biotinylated Mek (kinase dead) were combined at 2× final concentrations in assay buffer (50 mM Tris, pH 7.5, 15 mM MgCl2, 0.01% BSA and 1 mM DTT) and dispensed […] per well in assay plates (Greiner white 384 well assay plates #781207) containing […] of 40× of a Raf kinase inhibitor test compound diluted in 100% DMSO. The plate was incubated for 60 minutes at room temperature. The Raf kinase activity reaction was started by the addition of […] per well of 2×ATP diluted in assay buffer. After 3 hours (b-Raf(V600E)) or 1 hour (c-Raf). The reactions were stopped and the phosphorylated product was measured using a rabbit anti-p-MEK (Cell Signaling, #9121) antibody and the Alpha Screen IgG (ProteinA) detection Kit (PerkinElmer #6760617R), by the addition of […] to the well of a mixture of the antibody (1:2000 dilution) and detection beads (1:2000 dilution of both beads) in Stop/bead buffer (25 mM EDTA, 50 mM Tris, pH 7.5, 0.01% Tween20). The additions were carried out under dark conditions to protect the detection beads from light. A lid was placed on top of the plate and incubated for 1 hour at room temperature, after which the luminescence was read on a PerkinElmer Envision instrument. The concentration of each compound for 50% inhibition (IC50) was calculated by non-linear regression using XL Fit data analysis software.

[2] = phosphate Example itself, buffer (pH 6.8, pH 4.0 or FaSSIF) not given, 16-24 hours at room temperature
[3] = c-Raf approximately 4 nM, ATP 1 μM, pre-incubation 60 minutes, reaction 1 hour at room temperature, read-out: C-Raf

T1 sequence (P04049 whole entry Y340E/Y341E): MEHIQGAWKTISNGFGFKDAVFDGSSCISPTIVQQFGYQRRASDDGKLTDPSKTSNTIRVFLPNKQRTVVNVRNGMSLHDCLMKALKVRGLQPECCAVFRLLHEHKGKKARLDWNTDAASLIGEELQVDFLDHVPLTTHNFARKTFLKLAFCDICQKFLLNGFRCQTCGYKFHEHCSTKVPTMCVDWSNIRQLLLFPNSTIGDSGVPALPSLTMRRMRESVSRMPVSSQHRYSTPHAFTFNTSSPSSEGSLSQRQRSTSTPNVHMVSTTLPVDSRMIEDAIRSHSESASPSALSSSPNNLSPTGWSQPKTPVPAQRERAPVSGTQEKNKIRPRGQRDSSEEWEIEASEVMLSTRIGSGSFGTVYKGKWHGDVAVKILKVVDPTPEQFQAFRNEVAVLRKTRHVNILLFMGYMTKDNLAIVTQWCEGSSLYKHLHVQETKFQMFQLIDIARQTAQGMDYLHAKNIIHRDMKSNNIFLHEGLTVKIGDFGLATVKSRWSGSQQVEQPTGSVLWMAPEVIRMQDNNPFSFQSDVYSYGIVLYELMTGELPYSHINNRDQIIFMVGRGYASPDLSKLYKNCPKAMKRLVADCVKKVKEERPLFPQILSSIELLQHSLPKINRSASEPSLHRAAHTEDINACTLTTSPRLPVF
T1 sequence (P63104 whole entry partner): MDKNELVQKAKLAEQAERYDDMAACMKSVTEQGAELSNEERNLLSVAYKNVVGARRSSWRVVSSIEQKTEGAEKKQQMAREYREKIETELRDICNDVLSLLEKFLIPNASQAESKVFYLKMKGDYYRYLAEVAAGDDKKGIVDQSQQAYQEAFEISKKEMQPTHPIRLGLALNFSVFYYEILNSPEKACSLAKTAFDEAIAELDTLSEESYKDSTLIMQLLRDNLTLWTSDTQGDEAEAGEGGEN

Row | SMILES | solubility [1, 2] [µM] | IC50 (C-Raf; [3]) [nM] | solubility ([1]; buffer not stated) [µM] | improvement of solubility compared with the corresponding non-phosphate molecule ([1]; 874 μM versus 18 μM) | IC50 (C-Raf; read-out: inhibitory efficacy for C-Raf) [nM]
1 | Cc1ncc(NC(=O)c2cccc(C(F)(F)F)c2)cc1-c1cc(OCCOP(=O)(O)O)nc(N2CCOC[C@H]2C)c1 [Example 4, (R)-2-((2-methyl-6′-(3-methylmorpholino)-5-(3-(trifluoromethyl)-benzamido)-[3,4′-bipyridin]-2′-yl)oxy)-ethyl dihydrogen phosphate] | 617 | 0.7 | – | – | –
2 | Cc1ccc(NC(=O)c2cc(C(F)(F)F)ccn2)cc1-c1cc(OC[C@@H](O)COP(=O)(O)O)nc(N2CCOCC2)c1 [Example 3, (R)-2-hydroxy-3-((4-(2-methyl-5-(4-(trifluoromethyl)picolinamido)phenyl)-6-morpholinopyridin-2-yl)oxy)propyl dihydrogen phosphate] | 987 | 0.024 | – | – | –
3 | Cc1ncc(NC(=O)c2cccc(C(F)(F)F)c2)cc1-c1cnc(OCCOP(=O)(O)O)c(N2CCOCC2)c1 [Example 18, 2-((2′-methyl-5-morpholino-5′-(3-(trifluoromethyl)benzamido)-[3,3′-bipyridin]-6-yl)oxy)ethyl dihydrogen phosphate] | – | 0.02 | – | – | –
4 | Cc1ccc(NC(=O)c2ccnc(C(F)(F)F)c2)cc1-c1cnc(OCCOP(=O)(O)O)c(N2CCOCC2)c1 [Example 13, 2-((5-(2-methyl-5-(2-(trifluoromethyl)isonicotinamido)phenyl)-3-morpholinopyridin-2-yl)oxy)ethyl dihydrogen phosphate] | 792 | 0.03 | – | – | –
5 | Cc1ccc(NC(=O)c2ccnc(C(C)(C)F)c2)cc1-c1cc(OCCOP(=O)(O)O)nc(N2CCOC[C@H]2C)c1 [Example 11, (R)-2-((4-(5-(2-(2-fluoropropan-2-yl)isonicotinamido)-2-methylphenyl)-6-(3-methylmorpholino)pyridin-2-yl)oxy)ethyl dihydrogen phosphate] | < 1000 | 2 | – | – | –
6 | Cc1ccc(NC(=O)c2ccnc(C(C)(C)F)c2)cc1-c1cc(OCCOP(=O)(O)O)nc(N2CCOCC2)c1 [Example 9, 2-((4-(5-(2-(2-fluoropropan-2-yl)isonicotinamido)-2-methylphenyl)-6-morpholinopyridin-2-yl)oxy)ethyl dihydrogen phosphate] | 841 | 0.5 | – | – | –
7 | Cc1ccc(NC(=O)c2cccc(C(F)(F)F)c2)cc1-c1cc(OCCOP(=O)(O)O)nc(N2CCOC[C@H]2C)c1 [Example 2, (R)-2-((4-(2-methyl-5-(3-(trifluoromethyl)benzamido)phenyl)-6-(3-methylmorpholino)pyridin-2-yl)oxy)ethyl dihydrogen phosphate] | < 1000 | 6 | – | – | –
8 | Cc1ccc(NC(=O)c2cc(C(F)(F)F)ccn2)cc1-c1cc(OCCOP(=O)(O)O)nc(N2CCOCC2)c1 [Example 17, 2-((4-(2-methyl-5-(4-(trifluoromethyl)picolin amido)phenyl)-6-morpholinopyridin-2-yl)oxy)ethyl dihydrogen phosphate] | 253 | 0.02 | – | – | –
9 | Cc1ccc(NC(=O)c2ccnc(C(F)(F)F)c2)cc1-c1cc(OCCO)nc(N2CCOCC2)c1 [N-(3-(2-(2-hydroxyethoxy)-6-morpholinopyridin-4-yl)-4-methylphenyl)-2-(trifluoromethyl)isonicotinamide, reference compound] | – | – | 18 (≈ 9.04 µg/mL) | – | –
10 | Cc1ccc(NC(=O)c2ccnc(C(F)(F)F)c2)cc1-c1cc(OCCOP(=O)(O)O)nc(N2CCOC[C@H]2C)c1 [Example 12, (R)-2-((4-(2-methyl-5-(2-(trifluoromethyl)-isonicotinamido)phenyl)-6-(3-methyl-morpholino)pyridin-2-yl)oxy)ethyl dihydrogen phosphate] | 939 | 2 | – | – | –
11 | Cc1ncc(NC(=O)c2cccc(C(F)(F)F)c2)cc1-c1cc(OCCOP(=O)(O)O)nc(N2CCOCC2)c1 [Example 5, 2-((2-methyl-6′-morpholino-5-(3-(trifluoromethyl)benz amido)-[3,4′-bipyridin]-2′-yl)oxy)ethyl dihydrogen phosphate] | 725 | 0.1 | – | – | –
12 | Cc1ccc(NC(=O)c2ccnc(C(F)(F)F)c2)cc1-c1cc(OCCOP(=O)(O)O)nc(N2CCOCC2)c1 [Example 1, 2-((4-(2-methyl-5-(2-(trifluoromethyl)isonicotinamido)phenyl)-6-morpholinopyridin-2-yl)oxy)ethyl dihydrogen phosphate] | – | – | 874 | greater than 48 fold | 0.1
13 | Cc1ccc(NC(=O)c2cccc(C(F)(F)F)c2)cc1-c1cc(OCCOP(=O)(O)O)nc(N2CCOCC2)c1 [Example 7, 2-((4-(2-methyl-5-(3-(trifluoromethyl)benzamido)phenyl)-6-morpholinopyridin-2-yl)oxy)ethyl dihydrogen phosphate] | 124 | 0.05 | – | – | –
14 | Cc1ccc(NC(=O)c2ccnc(C(C)(F)F)c2)cc1-c1cc(OCCOP(=O)(O)O)nc(N2CCOCC2)c1 [Example 10, 2-((4-(5-(2-(1,1-difluoroethyl)isonicotin amido)-2-methylphenyl)-6-morpholinopyridin-2-yl)oxy)ethyl dihydrogen phosphate] | 635 | 0.3 | – | – | –
15 | Cc1ccc(NC(=O)c2ccnc(C(C)(F)F)c2)cc1-c1cc(OCCOP(=O)(O)O)nc(N2CCOC[C@H]2C)c1 [Example 6, (R)-2-((4-(5-(2-(1,1-difluoroethyl)isonicotin amido)-2-methylphenyl)-6-(3-methylmorpholino)pyridin-2-yl)oxy)ethyl dihydrogen phosphate] | 675 | 0.3 | – | – | –
16 | Cc1ccc(NC(=O)c2ccnc(C(C)(C)F)c2)cc1-c1cnc(OCCOP(=O)(O)O)c(N2CCOCC2)c1 [Example 15, 2-((5-(5-(2-(2-fluoropropan-2-yl)isonicotinamido)-2-methylphenyl)-3-morpholinopyridin-2-yl)oxy)ethyl dihydrogen phosphate] | 936 | 0.4 | – | – | –
17 | Cc1ccc(NC(=O)c2ccnc(C(C)(F)F)c2)cc1-c1cnc(OCCOP(=O)(O)O)c(N2CCOCC2)c1 [Example 14, 2-((5-(5-(2-(1,1-difluoroethyl)isonicotin amido)-2-methylphenyl)-3-morpholinopyridin-2-yl)oxy)ethyl dihydrogen phosphate] | 897 | 0.04 | – | – | –
18 | Cc1ccc(NC(=O)c2cccc(C(F)(F)F)c2)cc1-c1cnc(OCCOP(=O)(O)O)c(N2CCOCC2)c1 [Example 16, 2-((5-(2-methyl-5-(3-(trifluoromethyl)benzamido)phenyl)-3-morpholinopyridin-2-yl)oxy)ethyl dihydrogen phosphate] | < 1000 | 1 | – | – | –
